What was measured:
[1] = target: recombinant human DAAO protein (Homo sapiens (Human), UniProt P14920); assay: DAAO inhibitory activity test (H2O2/Amplex red fluorescence); format: biochemical; conditions: D-alanine substrate, Amplex red fluorescence
Experimental: The DAAO inhibitory activity was measured by assaying the amount of hydrogen peroxide (H2O2) produced by reacting DAAO protein with flavin adenine dinucleotide (FAD) and D-alanine. The amount of H2O2 was determined by measuring the fluorescence generated on conversion of Amplex red (manufactured by Invitrogen Co.) into resorufin by the reaction of H2O2 with horseradish peroxidase (HRP).
Escherichia coli strain BL21(DE3) (manufactured by Novagen) was transformed with the constructed human DAAO expression vector, inoculated into LB culture medium containing kanamycin at a final concentration of 20 μg/mL, and shake-cultured at 37° C. overnight. The multiplied transformant was inoculated into Terrific Broth containing kanamycin at a final concentration of 20 μg/mL, and shake-cultured at 37° C. until it reached OD600=3.0. Thereafter, the culture was cooled to 30° C., and expression was induced with 1 mM IPTG. After 20 hours, bacterial pellets were recovered by centrifugation.
The bacterial pellets recovered as above were suspended in a lysis buffer (17 mM sodium pyrophosphate buffer pH 8.3, 100 μM FAD, 1 mM sodium benzoate, 1 mM PMSF, 14 mM β-mercaptoethanol, 0.2 mg/mL lysozyme) and the bacteria were fractured by sonication. The sonicated liquid was centrifuged and the supernatant was recovered. […]

[2] = target: HEK293 cells that stably express human DAAO (Homo sapiens (Human), UniProt P14920); assay: Inhibitory activity test at cellular level using DAAO-expressing cells; format: cell-based
Experimental: HEK293 cells that stably express human DAAO were suspended in Cellbanker solution at 5×10^6 cells/ml and cryopreserved at −80° C. At the time of measurement, the cells were centrifuged at 1000 rpm for one min and the Cellbanker solution was removed. […] A 4% DMSO buffer solution (50 mM sodium phosphate [pH 7.5], 0.02% CHAPS) of the test compound (4 μL) was added to a 384-well black, low volume plate, the cell suspension (4 μL) was added, and the mixture was incubated at room temperature for 15 min.
Reverse transcription was performed on human normal kidney tissue-derived RNA (Clontech Corp.) using reverse transcriptase (SuperScriptIII, Life Technologies Corporation) and oligo (dT) primer (Life Technologies Corporation) according to the protocol of the kit (Life Technologies Corporation) and cDNA was synthesized. Then, using human DAAO_HindIII_F represented by Sequence No. 1 and human DAAO_BamHI_R represented by Sequence No. 2, a PCR reaction (35 cycles of 98° C. for 15 sec, 55° C. for 15 sec and 68° C. for 1 min 30 sec) was performed using DNA polymerase (PrimeSTAR, TAKARA BIO INC.) and cDNA obtained as above as a template. […] The PCR product was cloned in a cloning vector (pCR2.1-TOPO Cloning Kit, Life Technologies Corporation). The sequence of the insert was determined by the dideoxy sequence method (BigDye Terminator v3.1 Cycle Sequencing Kit; Life Technologies Corporation). […]

`O=c1[nH]nc(COc2ccc(Cl)cc2)cc1O` [Example 254] showed an IC50 [1] of 2.7 nM and an IC50 [2] of 6.3 nM.

From patent publication US10202399B2, “Dihydroxy aromatic heterocyclic compound” (Takeda Pharmaceutical Company Limited, priority 2011, dated 2019)
